Each block holds one molecule with its values, some of them ahead of it.
Columns and labels:
Assay in all cases: radiometric filter-binding kinase assay
AURKA (human) = AURKA (human) (UniProt O14965)
AURKB (human) = AURKB (human) (UniProt Q96GD4)
BRSK1 (human) = BRSK1 (human) (UniProt Q8TDC3)
BTK (human) = BTK (human) (UniProt Q06187)
CDK2 CCNA2 (human) = CDK2 CCNA2 (human) (UniProt P20248+P24941)
CHEK1 (human) = CHEK1 (human) (UniProt O14757)
CSNK2A1 (human) = CSNK2A1 (human) (UniProt P68400)
DYRK2 (human) = DYRK2 (human) (UniProt Q92630)
EEF2K (human) = EEF2K (human) (UniProt O00418)
EPHA2 (human) = EPHA2 (human) (UniProt P29317)
ERBB4 (human) = ERBB4 (human) (UniProt Q15303)
FGFR1 (human) = FGFR1 (human) (UniProt P11362)
FLT1 (human) = FLT1 (human) (UniProt P17948)
GCK (human) = GCK (human) (UniProt Q12851)
INSRR (human) = INSRR (human) (UniProt P14616)
MAP2K2 (human) = MAP2K2 (human) (UniProt P36507)
MAP2K6 (human) = MAP2K6 (human) (UniProt P52564)
MAPK10 (human) = MAPK10 (human) (UniProt P53779)
MAPK12 (human) = MAPK12 (human) (UniProt P53778)
MAPK15 (human) = MAPK15 (human) (UniProt Q8TD08)
MAPKAPK3 (human) = MAPKAPK3 (human) (UniProt Q16644)
MAPKAPK5 (human) = MAPKAPK5 (human) (UniProt Q8IW41)
MELK (human) = MELK (human) (UniProt Q14680)
MINK1 (human) = MINK1 (human) (UniProt Q8N4C8)
MST4 (human) = MST4 (human) (UniProt Q9P289)
[1] = system: PAK2 (human), Q13177 [T402E]
PHKG1 (human) = PHKG1 (human) (UniProt Q16816)
PIM2 (human) = PIM2 (human) (UniProt Q9P1W9)
PIM3 (human) = PIM3 (human) (UniProt Q86V86)
PRKACA (human) = PRKACA (human) (UniProt P17612)
PRKCA (human) = PRKCA (human) (UniProt P17252)
RIPK2 (human) = RIPK2 (human) (UniProt O43353)
RPS6KA3 KD1 KD2 (human) = RPS6KA3 KD1 KD2 (human) (UniProt P51812)
[2] = system: SGK1 (human), O00141 [S422D]
SRPK1 (human) = SRPK1 (human) (UniProt Q96SB4)
TAOK1 (human) = TAOK1 (human) (UniProt Q7L7X3)
TAOK1 (human), sequence (Q7L7X3 whole entry, looked up): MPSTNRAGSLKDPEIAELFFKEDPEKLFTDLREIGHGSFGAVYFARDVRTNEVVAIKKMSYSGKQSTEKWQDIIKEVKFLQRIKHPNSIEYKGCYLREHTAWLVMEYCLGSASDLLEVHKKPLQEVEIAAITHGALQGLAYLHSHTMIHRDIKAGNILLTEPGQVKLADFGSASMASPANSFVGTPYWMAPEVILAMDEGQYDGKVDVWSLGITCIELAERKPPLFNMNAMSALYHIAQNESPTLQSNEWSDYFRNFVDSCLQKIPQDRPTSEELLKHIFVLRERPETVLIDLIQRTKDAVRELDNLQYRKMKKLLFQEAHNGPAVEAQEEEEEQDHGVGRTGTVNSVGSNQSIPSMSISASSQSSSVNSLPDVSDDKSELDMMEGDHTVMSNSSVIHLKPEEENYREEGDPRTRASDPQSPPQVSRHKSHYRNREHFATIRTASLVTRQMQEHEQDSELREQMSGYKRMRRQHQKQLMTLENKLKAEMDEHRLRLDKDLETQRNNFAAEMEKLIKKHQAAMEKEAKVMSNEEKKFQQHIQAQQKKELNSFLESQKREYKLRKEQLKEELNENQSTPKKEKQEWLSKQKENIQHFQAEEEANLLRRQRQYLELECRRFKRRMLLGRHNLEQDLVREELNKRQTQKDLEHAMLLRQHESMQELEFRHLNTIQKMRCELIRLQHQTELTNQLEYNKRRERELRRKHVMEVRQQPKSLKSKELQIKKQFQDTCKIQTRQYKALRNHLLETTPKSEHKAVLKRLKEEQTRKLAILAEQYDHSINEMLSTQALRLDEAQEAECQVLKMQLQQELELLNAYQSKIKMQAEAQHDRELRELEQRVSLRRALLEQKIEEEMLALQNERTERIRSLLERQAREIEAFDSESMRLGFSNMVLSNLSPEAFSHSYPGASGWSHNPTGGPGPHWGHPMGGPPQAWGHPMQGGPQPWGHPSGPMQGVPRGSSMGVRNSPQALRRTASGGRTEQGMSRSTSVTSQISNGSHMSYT

MAP2K2 (human), sequence (P36507 whole entry, looked up): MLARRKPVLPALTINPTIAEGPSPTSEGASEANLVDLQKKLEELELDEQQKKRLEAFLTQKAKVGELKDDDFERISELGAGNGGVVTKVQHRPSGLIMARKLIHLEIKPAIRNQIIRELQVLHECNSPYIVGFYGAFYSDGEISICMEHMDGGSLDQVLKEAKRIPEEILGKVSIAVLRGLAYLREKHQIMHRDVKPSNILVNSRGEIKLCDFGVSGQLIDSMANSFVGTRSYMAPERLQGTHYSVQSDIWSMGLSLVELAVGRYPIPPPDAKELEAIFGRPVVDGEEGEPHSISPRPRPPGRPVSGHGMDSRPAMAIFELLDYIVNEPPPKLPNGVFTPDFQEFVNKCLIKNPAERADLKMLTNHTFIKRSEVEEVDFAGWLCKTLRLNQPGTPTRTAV
DYRK2 (human), sequence (Q92630 whole entry, looked up): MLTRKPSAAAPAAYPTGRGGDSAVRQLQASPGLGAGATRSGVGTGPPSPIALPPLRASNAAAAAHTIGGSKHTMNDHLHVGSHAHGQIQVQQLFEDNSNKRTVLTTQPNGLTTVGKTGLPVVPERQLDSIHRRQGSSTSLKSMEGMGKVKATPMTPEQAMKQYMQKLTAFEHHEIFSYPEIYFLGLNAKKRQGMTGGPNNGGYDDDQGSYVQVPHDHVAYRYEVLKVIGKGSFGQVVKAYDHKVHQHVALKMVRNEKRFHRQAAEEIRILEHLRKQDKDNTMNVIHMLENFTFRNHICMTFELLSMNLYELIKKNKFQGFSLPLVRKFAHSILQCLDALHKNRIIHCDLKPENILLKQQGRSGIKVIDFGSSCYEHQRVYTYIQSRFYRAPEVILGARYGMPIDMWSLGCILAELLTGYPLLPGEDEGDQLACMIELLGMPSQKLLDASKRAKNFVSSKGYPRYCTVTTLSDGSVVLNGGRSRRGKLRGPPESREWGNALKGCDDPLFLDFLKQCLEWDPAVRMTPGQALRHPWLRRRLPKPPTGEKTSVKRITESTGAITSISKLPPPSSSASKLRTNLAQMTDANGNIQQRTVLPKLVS
PHKG1 (human), sequence (Q16816 whole entry, looked up): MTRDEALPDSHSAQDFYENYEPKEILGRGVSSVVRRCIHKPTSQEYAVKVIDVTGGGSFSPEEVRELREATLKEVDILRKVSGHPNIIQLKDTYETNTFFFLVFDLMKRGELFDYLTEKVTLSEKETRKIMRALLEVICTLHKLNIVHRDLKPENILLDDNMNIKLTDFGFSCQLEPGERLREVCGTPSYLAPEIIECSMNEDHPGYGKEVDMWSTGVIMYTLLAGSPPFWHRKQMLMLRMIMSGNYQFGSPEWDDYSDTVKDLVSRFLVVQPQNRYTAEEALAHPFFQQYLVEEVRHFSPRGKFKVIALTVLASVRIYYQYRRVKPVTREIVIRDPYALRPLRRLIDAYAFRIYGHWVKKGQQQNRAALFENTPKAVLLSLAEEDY
MST4 (human), sequence (Q9P289 whole entry, looked up): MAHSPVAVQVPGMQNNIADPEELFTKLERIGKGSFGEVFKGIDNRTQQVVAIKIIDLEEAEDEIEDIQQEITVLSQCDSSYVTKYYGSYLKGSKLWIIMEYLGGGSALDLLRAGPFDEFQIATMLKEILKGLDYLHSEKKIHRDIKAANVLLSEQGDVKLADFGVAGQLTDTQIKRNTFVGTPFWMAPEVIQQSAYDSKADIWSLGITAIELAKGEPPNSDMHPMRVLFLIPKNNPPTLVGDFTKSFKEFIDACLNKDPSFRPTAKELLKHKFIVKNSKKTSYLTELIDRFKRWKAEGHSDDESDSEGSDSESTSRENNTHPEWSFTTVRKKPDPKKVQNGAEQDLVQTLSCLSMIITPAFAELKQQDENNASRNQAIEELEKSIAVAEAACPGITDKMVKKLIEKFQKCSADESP
FGFR1 (human), sequence (P11362 whole entry, looked up): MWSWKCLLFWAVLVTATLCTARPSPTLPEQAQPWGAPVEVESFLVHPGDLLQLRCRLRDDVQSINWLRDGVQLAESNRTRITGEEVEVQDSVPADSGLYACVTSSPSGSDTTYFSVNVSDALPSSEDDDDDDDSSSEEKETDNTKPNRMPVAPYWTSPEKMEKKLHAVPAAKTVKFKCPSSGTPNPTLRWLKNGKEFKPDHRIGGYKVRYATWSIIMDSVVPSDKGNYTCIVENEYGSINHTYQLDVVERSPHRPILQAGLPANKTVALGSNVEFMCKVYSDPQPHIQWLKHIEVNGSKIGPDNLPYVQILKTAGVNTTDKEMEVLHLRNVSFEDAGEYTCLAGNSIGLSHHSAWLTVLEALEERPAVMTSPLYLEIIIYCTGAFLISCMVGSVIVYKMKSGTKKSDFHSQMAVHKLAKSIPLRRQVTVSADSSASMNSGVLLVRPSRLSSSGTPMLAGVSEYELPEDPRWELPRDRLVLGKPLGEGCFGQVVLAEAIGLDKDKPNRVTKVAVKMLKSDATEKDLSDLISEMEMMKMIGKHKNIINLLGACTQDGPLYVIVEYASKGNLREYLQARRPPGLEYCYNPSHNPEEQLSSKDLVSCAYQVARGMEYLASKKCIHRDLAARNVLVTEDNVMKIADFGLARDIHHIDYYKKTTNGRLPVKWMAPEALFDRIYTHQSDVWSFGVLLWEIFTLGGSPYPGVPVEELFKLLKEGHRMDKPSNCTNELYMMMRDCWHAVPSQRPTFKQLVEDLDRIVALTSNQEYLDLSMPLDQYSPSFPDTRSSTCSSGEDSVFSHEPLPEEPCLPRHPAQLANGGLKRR
SRPK1 (human), sequence (Q96SB4 whole entry, looked up): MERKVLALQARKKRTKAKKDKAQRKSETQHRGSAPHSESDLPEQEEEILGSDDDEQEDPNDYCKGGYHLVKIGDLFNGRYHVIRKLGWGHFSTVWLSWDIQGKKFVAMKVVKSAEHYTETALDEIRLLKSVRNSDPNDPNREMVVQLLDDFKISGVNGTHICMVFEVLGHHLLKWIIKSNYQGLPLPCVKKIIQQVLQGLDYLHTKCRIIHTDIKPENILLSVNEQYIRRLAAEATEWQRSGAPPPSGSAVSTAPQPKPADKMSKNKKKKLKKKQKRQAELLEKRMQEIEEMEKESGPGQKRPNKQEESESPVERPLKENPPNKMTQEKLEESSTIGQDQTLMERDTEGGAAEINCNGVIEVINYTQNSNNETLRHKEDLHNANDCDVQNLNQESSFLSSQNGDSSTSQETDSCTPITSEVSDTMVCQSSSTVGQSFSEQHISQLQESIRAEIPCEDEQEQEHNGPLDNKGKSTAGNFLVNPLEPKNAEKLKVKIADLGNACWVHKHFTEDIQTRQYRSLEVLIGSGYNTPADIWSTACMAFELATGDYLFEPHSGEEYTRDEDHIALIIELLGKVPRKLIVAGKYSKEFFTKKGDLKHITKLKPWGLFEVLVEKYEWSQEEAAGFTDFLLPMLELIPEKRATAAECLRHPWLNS
MAP2K6 (human), sequence (P52564 whole entry, looked up): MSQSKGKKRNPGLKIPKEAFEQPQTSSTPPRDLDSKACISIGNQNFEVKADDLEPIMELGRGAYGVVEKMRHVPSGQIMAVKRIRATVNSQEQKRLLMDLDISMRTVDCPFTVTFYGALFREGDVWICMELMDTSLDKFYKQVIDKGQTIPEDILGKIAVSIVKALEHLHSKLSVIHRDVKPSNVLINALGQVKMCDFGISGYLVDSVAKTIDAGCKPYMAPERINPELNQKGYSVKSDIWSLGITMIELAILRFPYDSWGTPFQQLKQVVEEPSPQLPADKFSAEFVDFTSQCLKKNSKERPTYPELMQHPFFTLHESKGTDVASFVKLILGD

residual activity (AURKA (human); compound 0.1 µM): 92%
residual activity (AURKA (human); compound 1.0 µM): 88%
residual activity (AURKA (human); compound 10.0 µM): 112%
residual activity (AURKB (human); compound 0.1 µM): 132%
residual activity (AURKB (human); compound 1.0 µM): 117%
residual activity (AURKB (human); compound 10.0 µM): 115%
residual activity (BRSK1 (human); compound 0.1 µM): 96%
residual activity (BRSK1 (human); compound 1.0 µM): 73%
residual activity (BRSK1 (human); compound 10.0 µM): 26%
residual activity (BTK (human); compound 0.1 µM): 92%
residual activity (BTK (human); compound 1.0 µM): 120%
residual activity (BTK (human); compound 10.0 µM): 79%
residual activity (CDK2 CCNA2 (human); compound 0.1 µM): 66%
residual activity (CDK2 CCNA2 (human); compound 1.0 µM): 30%
residual activity (CDK2 CCNA2 (human); compound 10.0 µM): 11%
residual activity (CHEK1 (human); compound 1.0 µM): 100%
residual activity (CHEK1 (human); compound 10.0 µM): 70%
residual activity (CSNK2A1 (human); compound 0.1 µM): 107%
residual activity (CSNK2A1 (human); compound 1.0 µM): 110%
residual activity (CSNK2A1 (human); compound 10.0 µM): 65%
residual activity (DYRK2 (human); compound 0.1 µM): 74%
residual activity (DYRK2 (human); compound 1.0 µM): 29%
residual activity (DYRK2 (human); compound 10.0 µM): 10%
residual activity (EEF2K (human); compound 0.1 µM): 105%
residual activity (EEF2K (human); compound 1.0 µM): 111%
residual activity (EEF2K (human); compound 10.0 µM): 87%
residual activity (EPHA2 (human); compound 0.1 µM): 78%
residual activity (EPHA2 (human); compound 1.0 µM): 99%
residual activity (EPHA2 (human); compound 10.0 µM): 82%
residual activity (ERBB4 (human); compound 0.1 µM): 83%
residual activity (ERBB4 (human); compound 10.0 µM): 73%
residual activity (FGFR1 (human); compound 0.1 µM): 110%
residual activity (FGFR1 (human); compound 1.0 µM): 85%
residual activity (FGFR1 (human); compound 10.0 µM): 82%
residual activity (FLT1 (human); compound 0.1 µM): 95%
residual activity (FLT1 (human); compound 1.0 µM): 88%
residual activity (FLT1 (human); compound 10.0 µM): 68%
residual activity (GCK (human); compound 0.1 µM): 41%
residual activity (GCK (human); compound 1.0 µM): 82%
residual activity (GCK (human); compound 10.0 µM): 44%
residual activity (INSRR (human); compound 0.1 µM): 100%
residual activity (INSRR (human); compound 1.0 µM): 107%
residual activity (INSRR (human); compound 10.0 µM): 97%
residual activity (MAP2K2 (human); compound 0.1 µM): 106%
residual activity (MAP2K2 (human); compound 1.0 µM): 123%
residual activity (MAP2K2 (human); compound 10.0 µM): 115%
residual activity (MAP2K6 (human); compound 0.1 µM): 92%
residual activity (MAP2K6 (human); compound 1.0 µM): 29%
residual activity (MAP2K6 (human); compound 10.0 µM): 16%
residual activity (MAPK10 (human); compound 0.1 µM): 88%
residual activity (MAPK10 (human); compound 1.0 µM): 79%
residual activity (MAPK10 (human); compound 10.0 µM): 31%
residual activity (MAPK12 (human); compound 0.1 µM): 95%
residual activity (MAPK12 (human); compound 1.0 µM): 96%
residual activity (MAPK12 (human); compound 10.0 µM): 58%
residual activity (MAPKAPK3 (human); compound 0.1 µM): 92%
residual activity (MAPKAPK3 (human); compound 1.0 µM): 100%
residual activity (MAPKAPK3 (human); compound 10.0 µM): 92%
residual activity (MAPKAPK5 (human); compound 0.1 µM): 109%
residual activity (MAPKAPK5 (human); compound 1.0 µM): 97%
residual activity (MAPKAPK5 (human); compound 10.0 µM): 65%
residual activity (MELK (human); compound 0.1 µM): 108%
residual activity (MELK (human); compound 1.0 µM): 78%
residual activity (MELK (human); compound 10.0 µM): 40%
residual activity (MINK1 (human); compound 0.1 µM): 65%
residual activity (MINK1 (human); compound 1.0 µM): 13%
residual activity (MINK1 (human); compound 10.0 µM): 2%
residual activity (MST4 (human); compound 0.1 µM): 117%
residual activity (MST4 (human); compound 1.0 µM): 107%
residual activity (MST4 (human); compound 10.0 µM): 95%
residual activity ([1]; compound 0.1 µM): 105%
residual activity ([1]; compound 1.0 µM): 93%
residual activity ([1]; compound 10.0 µM): 57%
residual activity (PHKG1 (human); compound 0.1 µM): 82%
residual activity (PHKG1 (human); compound 1.0 µM): 29%
residual activity (PHKG1 (human); compound 10.0 µM): 5%
residual activity (PIM2 (human); compound 0.1 µM): 99%
residual activity (PIM2 (human); compound 1.0 µM): 102%
residual activity (PIM2 (human); compound 10.0 µM): 99%
residual activity (PIM3 (human); compound 0.1 µM): 97%
residual activity (PIM3 (human); compound 1.0 µM): 58%
residual activity (PIM3 (human); compound 10.0 µM): 42%
residual activity (PRKACA (human); compound 0.1 µM): 105%
residual activity (PRKACA (human); compound 1.0 µM): 109%
residual activity (PRKACA (human); compound 10.0 µM): 93%
residual activity (PRKCA (human); compound 0.1 µM): 97%
residual activity (PRKCA (human); compound 1.0 µM): 95%
residual activity (PRKCA (human); compound 10.0 µM): 90%
residual activity (RIPK2 (human); compound 0.1 µM): 96%
residual activity (RIPK2 (human); compound 1.0 µM): 96%
residual activity (RIPK2 (human); compound 10.0 µM): 79%
residual activity (RPS6KA3 KD1 KD2 (human); compound 0.1 µM): 98%
residual activity (RPS6KA3 KD1 KD2 (human); compound 10.0 µM): 81%
residual activity ([2]; compound 10.0 µM): 90%
residual activity (SRPK1 (human); compound 0.1 µM): 105%
residual activity (SRPK1 (human); compound 1.0 µM): 86%
residual activity (SRPK1 (human); compound 10.0 µM): 46%
residual activity (TAOK1 (human); compound 0.1 µM): 103%
residual activity (TAOK1 (human); compound 10.0 µM): 53%
SMILES: NC(=O)c1cc(-c2ccnc(NC3CCCCC3)c2)nc(N2CCNCC2)c1
residual activity (MAPK15 (human); compound 0.1 µM): 63%
residual activity (MAPK15 (human); compound 1.0 µM): 26%
residual activity (MAPK15 (human); compound 10.0 µM): 4%

residual activity (AURKA (human); compound 1.0 µM): 97%
residual activity (AURKA (human); compound 10.0 µM): 55%
residual activity (AURKB (human); compound 1.0 µM): 55%
residual activity (AURKB (human); compound 10.0 µM): 18%
residual activity (BRSK1 (human); compound 1.0 µM): 82%
residual activity (BRSK1 (human); compound 10.0 µM): 50%
residual activity (BTK (human); compound 1.0 µM): 131%
residual activity (BTK (human); compound 10.0 µM): 90%
residual activity (CDK2 CCNA2 (human); compound 1.0 µM): 102%
residual activity (CDK2 CCNA2 (human); compound 10.0 µM): 79%
residual activity (CHEK1 (human); compound 1.0 µM): 44%
residual activity (CHEK1 (human); compound 10.0 µM): 12%
residual activity (CSNK2A1 (human); compound 1.0 µM): 95%
residual activity (CSNK2A1 (human); compound 10.0 µM): 82%
residual activity (DYRK2 (human); compound 1.0 µM): 50%
residual activity (DYRK2 (human); compound 10.0 µM): 17%
residual activity (EEF2K (human); compound 1.0 µM): 116%
residual activity (EEF2K (human); compound 10.0 µM): 107%
residual activity (EPHA2 (human); compound 1.0 µM): 107%
residual activity (EPHA2 (human); compound 10.0 µM): 86%
residual activity (ERBB4 (human); compound 1.0 µM): 97%
residual activity (ERBB4 (human); compound 10.0 µM): 70%
residual activity (FGFR1 (human); compound 1.0 µM): 118%
residual activity (FGFR1 (human); compound 10.0 µM): 95%
residual activity (FLT1 (human); compound 1.0 µM): 62%
residual activity (FLT1 (human); compound 10.0 µM): 13%
residual activity (GCK (human); compound 1.0 µM): 88%
residual activity (GCK (human); compound 10.0 µM): 28%
residual activity (INSRR (human); compound 1.0 µM): 90%
residual activity (INSRR (human); compound 10.0 µM): 67%
residual activity (MAP2K2 (human); compound 1.0 µM): 93%
residual activity (MAP2K2 (human); compound 10.0 µM): 90%
residual activity (MAP2K6 (human); compound 1.0 µM): 72%
residual activity (MAP2K6 (human); compound 10.0 µM): 31%
residual activity (MAPK10 (human); compound 1.0 µM): 84%
residual activity (MAPK10 (human); compound 10.0 µM): 50%
residual activity (MAPK12 (human); compound 1.0 µM): 99%
residual activity (MAPK12 (human); compound 10.0 µM): 102%
residual activity (MAPKAPK3 (human); compound 1.0 µM): 91%
residual activity (MAPKAPK3 (human); compound 10.0 µM): 108%
residual activity (MAPKAPK5 (human); compound 1.0 µM): 80%
residual activity (MAPKAPK5 (human); compound 10.0 µM): 55%
residual activity (MELK (human); compound 1.0 µM): 90%
residual activity (MELK (human); compound 10.0 µM): 43%
residual activity (MINK1 (human); compound 1.0 µM): 115%
residual activity (MINK1 (human); compound 10.0 µM): 93%
residual activity (MST4 (human); compound 1.0 µM): 86%
residual activity (MST4 (human); compound 10.0 µM): 74%
residual activity ([1]; compound 1.0 µM): 86%
residual activity ([1]; compound 10.0 µM): 86%
residual activity (PHKG1 (human); compound 1.0 µM): 23%
residual activity (PHKG1 (human); compound 10.0 µM): 3%
residual activity (PIM2 (human); compound 10.0 µM): 93%
residual activity (PIM3 (human); compound 1.0 µM): 105%
residual activity (PIM3 (human); compound 10.0 µM): 76%
residual activity (PRKACA (human); compound 1.0 µM): 96%
residual activity (PRKCA (human); compound 1.0 µM): 95%
residual activity (PRKCA (human); compound 10.0 µM): 97%
residual activity (RIPK2 (human); compound 1.0 µM): 86%
residual activity (RIPK2 (human); compound 10.0 µM): 74%
residual activity (RPS6KA3 KD1 KD2 (human); compound 1.0 µM): 34%
residual activity (RPS6KA3 KD1 KD2 (human); compound 10.0 µM): 9%
residual activity ([2]; compound 1.0 µM): 72%
residual activity ([2]; compound 10.0 µM): 59%
residual activity (SRPK1 (human); compound 1.0 µM): 79%
residual activity (SRPK1 (human); compound 10.0 µM): 68%
residual activity (TAOK1 (human); compound 1.0 µM): 111%
residual activity (TAOK1 (human); compound 10.0 µM): 102%
SMILES: CCNc1nc(Nc2cc(F)c(C(=O)N3CCOCC3)cc2OC)ncc1C(F)(F)F
residual activity (MAPK15 (human); compound 1.0 µM): 96%
residual activity (MAPK15 (human); compound 10.0 µM): 78%
